In general, pEC50 refers to the negative decadic logarithm of the EC50, by convention in mol/L.

The values that follow come from patent US20210024483A1, “HETEROCYLCOALKENYL DERIVATIVES USEFUL AS AGONISTS OF THE GPR120 AND / OR GPR40” (Janssen Pharmaceutica NV, priority 2018, published 2021).

Assay [1] has as its target GPR40 (UniProt O14842). The experiment in a line: GPR40 Calcium Flux Assay. Type of assay: cell-based. The note with it: transfected HEK293 cells stably expressing human or rat GPR40; species not given. On the procedure:
Biological Example 3: In Vitro Assay
Compounds were tested in a calcium flux assay using transfected HEK293 cells stably expressing either human GPR40 or rat GPR40. Human GPR40 expressing cells were cultured in DMEM-High Glucose media supplemented with 10% fetal bovine serum, 1×L-Glutamine, 1× Penicillin/Streptomycin and 500 μg/mL G418. Rat GPR40 expressing cells were cultured in DMEM-High Glucose media supplemented with 10% fetal bovine serum and 1 μg/mL puromycin. Cells were plated into poly-D-lysine coated 384-well plates and cultured overnight in a 37° C. humidified tissue culture incubator under 5% CO2/90% O2 atmosphere.
On the day of the experiment, the culture media was replaced with assay buffer (HBSS, 20 mM HEPES, 0.1% BSA) and the cells incubated at 37° C. for 1 h. Calcium-sensitive fluorescent dye (Fluo 8 No-Wash Calcium Dye, ABD Bioquest) was then added and the cells incubated for another 30 min at 37° C. followed by 15 min at room temperature while protected from the light. The cell plate and a plate of diluted compounds of Formula (I) were loaded into a fluorescent plate reader that added compounds onto the cells while measuring the fluorescence intensity of each well. The plate reader recorded fluorescence intensity at 1 second intervals for 8 min and provided the data for analysis in an Excel format. EC50 values were calculated using Prism (GraphPad) software.
For orientation: Calcium assays in cells follow changes in intracellular calcium, usually with a dye or a luminescent sensor.

Assay [2] concerns the target T1, Human GPR120 short form (short splice variant, NM_001195755.1) (Homo sapiens, UniProt Q5NUL3).
T1 construct: expressed in transfected cells; host or cells: HEK293
T1 sequence (Q5NUL3 1-361): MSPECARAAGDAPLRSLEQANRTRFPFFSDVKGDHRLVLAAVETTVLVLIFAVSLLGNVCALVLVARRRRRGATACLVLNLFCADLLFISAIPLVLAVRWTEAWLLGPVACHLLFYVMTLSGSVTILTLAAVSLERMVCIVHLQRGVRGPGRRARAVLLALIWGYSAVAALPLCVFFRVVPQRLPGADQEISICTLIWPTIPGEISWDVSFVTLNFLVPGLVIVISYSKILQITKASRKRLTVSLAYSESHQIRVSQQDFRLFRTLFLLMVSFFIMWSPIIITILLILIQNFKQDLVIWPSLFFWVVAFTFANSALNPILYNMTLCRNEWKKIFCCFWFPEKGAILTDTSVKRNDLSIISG
The assay can be described thus: Human GPR120 Calcium Flux Assay. In kind it is cell-based. The note with it: HEK-293 cells, 4200 cells/well, read-out: Human GPR120 Calcium Flux Assay Procedure B EC50. Put shortly: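 HEK293 cells stably expressing human GPR120 short form were starved 1 h and loaded with Fluo-4 NW dye with probenecid. Compound-induced calcium flux was read on FLIPR for 300 s, with the response taken as max minus min RFU. EC50 came from sigmoidal variable-slope fits.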

pEC50: −log10 of the molar value.

In the case of `Cc1c(CCC(=O)O)ccc(OCC2=C(c3ccc(Cl)cc3)COCC2)c1C` [ID No. 745, 3-[4-[[5-(4-chlorophenyl)-3,6-dihydro-2H-pyran-4-yl]methoxy]-2,3-dimethyl-phenyl]propanoic acid], the figures for the pEC50 in assay [1] and in assay [2] were less than 5.00 and 6.96, respectively.
